Test results published in PubChem BioAssay (NCI).
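Interpolation was linear, between the two tested concentrations surrounding the appropriate level; five concentrations were tested over 48 hours in 96-well plates. Definition used: TGI = concentration required for complete inhibition of growth.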

Key:
Experiment in all cases: NCI tumour cell line growth inhibition, 48 h
COLO 205 colon = test system: COLO 205 colon
UACC-62 melanoma = test system: UACC-62 melanoma
RPMI-8226 leukemia = test system: RPMI-8226 leukemia
HL-60(TB) leukemia = test system: HL-60(TB) leukemia
SK-MEL-5 melanoma = test system: SK-MEL-5 melanoma
IGROV1 ovarian = test system: IGROV1 ovarian
KM12 colon = test system: KM12 colon
NCI-H226 lung = test system: NCI-H226 lung
A549 NSCLC = test system: A549 NSCLC
SNB-78 CNS = test system: SNB-78 CNS
MOLT-4 leukemia = test system: MOLT-4 leukemia
OVCAR-3 ovarian = test system: OVCAR-3 ovarian
U251 CNS = test system: U251 CNS
HOP-62 NSCLC = test system: HOP-62 NSCLC
UACC-257 melanoma = test system: UACC-257 melanoma
SNB-19 CNS = test system: SNB-19 CNS
LOX IMVI melanoma = test system: LOX IMVI melanoma
CAKI-1 renal = test system: CAKI-1 renal
HCT-15 colon = test system: HCT-15 colon
NCI-H23 lung = test system: NCI-H23 lung
A498 renal = test system: A498 renal
SW-620 colon = test system: SW-620 colon
M19-MEL melanoma = test system: M19-MEL melanoma
OVCAR-4 ovarian = test system: OVCAR-4 ovarian
RXF-631 renal = test system: RXF-631 renal
SF-539 CNS = test system: SF-539 CNS
SF-268 CNS = test system: SF-268 CNS
TK-10 renal = test system: TK-10 renal
HCT-116 colon = test system: HCT-116 colon
HOP-92 NSCLC = test system: HOP-92 NSCLC
DMS 114 small cell lung = test system: DMS 114 small cell lung
NCI-H460 lung = test system: NCI-H460 lung
OVCAR-8 ovarian = test system: OVCAR-8 ovarian
MALME-3M melanoma = test system: MALME-3M melanoma
NCI-H522 lung = test system: NCI-H522 lung
SN12C renal = test system: SN12C renal
SK-MEL-28 melanoma = test system: SK-MEL-28 melanoma
KM20L2 colon = test system: KM20L2 colon
HCC-2998 colon = test system: HCC-2998 colon
RXF 393 renal = test system: RXF 393 renal
DLD-1 colon = test system: DLD-1 colon
SK-MEL-2 melanoma = test system: SK-MEL-2 melanoma
SK-OV-3 ovarian = test system: SK-OV-3 ovarian
M14 melanoma = test system: M14 melanoma
HT29 colon = test system: HT29 colon
786-0 renal = test system: 786-0 renal
ACHN renal = test system: ACHN renal
XF 498 CNS = test system: XF 498 CNS
CCRF-CEM leukemia = test system: CCRF-CEM leukemia
UO-31 renal = test system: UO-31 renal
OVCAR-5 ovarian = test system: OVCAR-5 ovarian
DMS 273 small cell lung = test system: DMS 273 small cell lung
LXFL 529 NSCLC = test system: LXFL 529 NSCLC
SF-295 CNS = test system: SF-295 CNS
SNB-75 CNS = test system: SNB-75 CNS
K-562 leukemia = test system: K-562 leukemia
EKVX NSCLC = test system: EKVX NSCLC
HOP-18 NSCLC = test system: HOP-18 NSCLC

O=C(CCc1nnc2s/c(=C\c3ccc([N+](=O)[O-])cc3)c(=O)n12)Nc1ccc(Cl)c(Cl)c1
TGI (COLO 205 colon): 82.9 µM
TGI (UACC-62 melanoma): 78.8 µM
TGI (RPMI-8226 leukemia): 46.5 µM
TGI (HL-60(TB) leukemia): 44.3 µM
TGI (SK-MEL-5 melanoma): > 100 µM
TGI (IGROV1 ovarian): 50 µM
TGI (KM12 colon): 31.2 µM
TGI (NCI-H226 lung): 37 µM
TGI (A549 NSCLC): > 100 µM
TGI (SNB-78 CNS): 52.8 µM
TGI (MOLT-4 leukemia): 51.5 µM
TGI (OVCAR-3 ovarian): 27 µM
TGI (U251 CNS): 31.2 µM
TGI (HOP-62 NSCLC): 45.7 µM
TGI (UACC-257 melanoma): > 100 µM
TGI (SNB-19 CNS): > 100 µM
TGI (LOX IMVI melanoma): 31.9 µM
TGI (CAKI-1 renal): > 100 µM
TGI (HCT-15 colon): > 100 µM
TGI (NCI-H23 lung): 75.6 µM
TGI (A498 renal): > 100 µM
TGI (SW-620 colon): 58.4 µM
TGI (M19-MEL melanoma): > 100 µM
TGI (OVCAR-4 ovarian): 35.1 µM
TGI (RXF-631 renal): > 100 µM
TGI (SF-539 CNS): 32.2 µM
TGI (SF-268 CNS): 35.7 µM
TGI (TK-10 renal): > 100 µM
TGI (HCT-116 colon): > 100 µM
TGI (HOP-92 NSCLC): > 100 µM
TGI (DMS 114 small cell lung): 33.4 µM
TGI (NCI-H460 lung): > 100 µM
TGI (OVCAR-8 ovarian): 38.9 µM
TGI (MALME-3M melanoma): 98 µM
TGI (NCI-H522 lung): 32.3 µM
TGI (SN12C renal): 63.9 µM
TGI (SK-MEL-28 melanoma): 63.8 µM
TGI (KM20L2 colon): > 100 µM
TGI (HCC-2998 colon): 53.9 µM
TGI (RXF 393 renal): 34.6 µM
TGI (DLD-1 colon): 46.5 µM
TGI (SK-MEL-2 melanoma): 73.9 µM
TGI (SK-OV-3 ovarian): > 100 µM
TGI (M14 melanoma): 45 µM
TGI (HT29 colon): 71.7 µM
TGI (786-0 renal): 35.7 µM
TGI (ACHN renal): > 100 µM
TGI (XF 498 CNS): 45.5 µM
TGI (CCRF-CEM leukemia): 51 µM
TGI (UO-31 renal): > 100 µM
TGI (OVCAR-5 ovarian): > 100 µM
TGI (DMS 273 small cell lung): 54.4 µM
TGI (LXFL 529 NSCLC): 26.2 µM
TGI (SF-295 CNS): 58.4 µM
TGI (SNB-75 CNS): 28 µM
TGI (K-562 leukemia): 63.9 µM

COc1ccc(C(=O)C(C(=O)CCC(=O)Nc2ccc(Cl)c(Cl)c2)c2ccc(OC)cc2)cc1 (configuration not stated)
TGI (EKVX NSCLC): > 100 µM
TGI (UACC-62 melanoma): > 100 µM
TGI (RPMI-8226 leukemia): > 100 µM
TGI (HL-60(TB) leukemia): > 100 µM
TGI (SK-MEL-5 melanoma): > 100 µM
TGI (IGROV1 ovarian): > 100 µM
TGI (KM12 colon): > 100 µM
TGI (NCI-H226 lung): > 100 µM
TGI (A549 NSCLC): > 100 µM
TGI (SNB-78 CNS): > 100 µM
TGI (MOLT-4 leukemia): > 100 µM
TGI (OVCAR-3 ovarian): > 100 µM
TGI (U251 CNS): > 100 µM
TGI (HOP-62 NSCLC): > 100 µM
TGI (UACC-257 melanoma): > 100 µM
TGI (SNB-19 CNS): > 100 µM
TGI (LOX IMVI melanoma): > 100 µM
TGI (CAKI-1 renal): > 100 µM
TGI (HCT-15 colon): > 100 µM
TGI (NCI-H23 lung): > 100 µM
TGI (A498 renal): > 100 µM
TGI (SW-620 colon): > 100 µM
TGI (M19-MEL melanoma): > 100 µM
TGI (OVCAR-4 ovarian): > 100 µM
TGI (RXF-631 renal): > 100 µM
TGI (SF-539 CNS): > 100 µM
TGI (SF-268 CNS): > 100 µM
TGI (TK-10 renal): > 100 µM
TGI (HCT-116 colon): > 100 µM
TGI (HOP-92 NSCLC): > 100 µM
TGI (DMS 114 small cell lung): > 100 µM
TGI (NCI-H460 lung): > 100 µM
TGI (OVCAR-8 ovarian): > 100 µM
TGI (MALME-3M melanoma): > 100 µM
TGI (NCI-H522 lung): > 100 µM
TGI (SN12C renal): > 100 µM
TGI (SK-MEL-28 melanoma): > 100 µM
TGI (KM20L2 colon): > 100 µM
TGI (HCC-2998 colon): > 100 µM
TGI (RXF 393 renal): > 100 µM
TGI (DLD-1 colon): > 100 µM
TGI (SK-MEL-2 melanoma): > 100 µM
TGI (HOP-18 NSCLC): > 100 µM
TGI (M14 melanoma): > 100 µM
TGI (HT29 colon): > 100 µM
TGI (786-0 renal): > 100 µM
TGI (ACHN renal): > 100 µM
TGI (XF 498 CNS): > 100 µM
TGI (CCRF-CEM leukemia): > 100 µM
TGI (UO-31 renal): > 100 µM
TGI (OVCAR-5 ovarian): > 100 µM
TGI (DMS 273 small cell lung): > 100 µM
TGI (LXFL 529 NSCLC): > 100 µM
TGI (SF-295 CNS): > 100 µM
TGI (SNB-75 CNS): > 100 µM
TGI (K-562 leukemia): > 100 µM
